# Where two headings read alike, the source gives them in different places.
# How the values were obtained:
# MDM2 = MDM2 (Homo sapiens, UniProt Q00987); assay: Competitive fluorescence polarization assay for MDM2; type: binding; conditions: competitive FP assay, MDM2
# MDMX = molecular target: T1, MDMX (Homo sapiens, UniProt O15151); assay: Competitive fluorescence polarization assay for MDMX; type: binding; conditions: competitive FP assay
# T1 sequence (O15151 1-125): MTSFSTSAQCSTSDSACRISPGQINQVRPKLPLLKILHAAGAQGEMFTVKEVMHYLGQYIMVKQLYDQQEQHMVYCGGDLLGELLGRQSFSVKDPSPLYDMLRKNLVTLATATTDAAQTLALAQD
# Sequence of MDM2 (Q00987 1-125): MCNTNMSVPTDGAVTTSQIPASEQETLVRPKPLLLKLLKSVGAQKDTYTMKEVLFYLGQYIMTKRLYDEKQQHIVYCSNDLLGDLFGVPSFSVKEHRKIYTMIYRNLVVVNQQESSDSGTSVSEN
Compound,IC50 (MDM2; read-out: IC50 (MDM2)),Ki (MDM2; read-out: Ki (MDM2)),IC50 (MDMX; read-out: IC50 (MDMX)),Ki (MDMX; read-out: Ki (MDMX)),IC50 (MDM2; IC50 (MDM2)),Ki (MDM2; Ki (MDM2)),IC50 (MDMX; IC50 (MDMX)),Ki (MDMX; Ki (MDMX))
"CC(=O)N[C@@H](CC(C)C)C(=O)N[C@H](C(=O)N[C@@H](Cc1ccccc1)C(=O)N[C@]1(C)CCCCCCC=CCCC[C@@](C)(C(=O)N[C@@H](CO)C(=O)N[C@H](C(=O)NCC(N)=O)C(C)C)NC(=O)[C@H](CC(C)C)NC(=O)[C@H](CCC(N)=O)NC(=O)[C@H](C)NC(=O)[C@H](Cc2c[nH]c3ccccc23)NC(=O)[C@H](Cc2ccc(O)cc2)NC(=O)[C@H](C(C)C)NC1=O)[C@@H](C)O (single isomer, unassigned) [compound 146]",< 10 nM,< 10 nM,100 to 1000 nM,10 to 100 nM,–,–,–,–
"CC(=O)N[C@@H](CC(C)C)C(=O)N[C@H](C(=O)N[C@@H](Cc1cccc(Cl)c1)C(=O)N[C@]1(C)CCCCCCC=CCCC[C@@](C)(C(=O)N[C@@H](CO)C(=O)N[C@@H](C)C(=O)N[C@@H](C)C(N)=O)NC(=O)[C@H](CC(C)C)NC(=O)[C@H](CCC(N)=O)NC(=O)[C@H](C)NC(=O)[C@H](Cc2c[nH]c3ccccc23)NC(=O)[C@H](Cc2ccc(O)cc2)NC(=O)[C@H](CCC(=O)O)NC1=O)[C@@H](C)O (single isomer, unassigned) [compound 156]",< 10 nM,< 10 nM,100 to 1000 nM,10 to 100 nM,–,–,–,–
"CC(=O)N[C@@H](CC(C)C)C(=O)N[C@H](C(=O)N[C@@H](Cc1ccccc1)C(=O)N[C@]1(C)CCCCCCC=CCCC[C@@](C)(C(=O)N[C@@H](CO)C(=O)N[C@@H](C)C(=O)N[C@@H](C)C(N)=O)NC(=O)[C@H](CC(C)C)NC(=O)[C@H](CCC(N)=O)NC(=O)[C@H](C)NC(=O)[C@H](Cc2c[nH]c3ccccc23)NC(=O)[C@H](CCC(=O)O)NC(=O)[C@H](C)NC1=O)[C@@H](C)O (single isomer, unassigned) [compound 166]",< 10 nM,< 10 nM,100 to 1000 nM,10 to 100 nM,–,–,–,–
"CC(=O)N[C@@H](CC(C)C)C(=O)N[C@H](C(=O)N[C@@H](Cc1ccccc1)C(=O)N[C@]1(C)CCCCCCC=CCCC[C@@](C)(C(=O)N[C@@H](CO)C(=O)N[C@@H](C)C(=O)N[C@@H](C)C(N)=O)NC(=O)[C@H](CC(C)C)NC(=O)[C@H](CCC(N)=O)NC(=O)[C@H](C)NC(=O)[C@H](Cc2c[nH]c3ccccc23)NC(=O)[C@H](CO)NC(=O)[C@H](C)NC1=O)[C@@H](C)O (single isomer, unassigned) [compound 167]",10 to 100 nM,< 10 nM,100 to 1000 nM,100 to 1000 nM,–,–,–,–
"CC[C@H](C)[C@H](NC(C)=O)C(=O)N[C@H](C(=O)N[C@@H](Cc1ccccc1)C(=O)N[C@]1(C)CCCCCCC=CCCC[C@@](C)(C(=O)N[C@@H](C)C(=O)N[C@@H](C)C(=O)N[C@H](C(=O)N[C@H](C)C(N)=O)[C@@H](C)CC)NC(=O)[C@H](CC(C)C)NC(=O)[C@H](CCC(N)=O)NC(=O)[C@H](C)NC(=O)[C@H](Cc2c[nH]c3ccccc23)NC(=O)[C@H](Cc2c[nH]cn2)NC(=O)[C@H](CCC(=O)O)NC1=O)[C@@H](C)O (single isomer, unassigned) [compound 173]",< 10 nM,< 10 nM,100 to 1000 nM,10 to 100 nM,–,–,–,–
"CC[C@H](C)[C@H](NC(C)=O)C(=O)N[C@H](C(=O)N[C@@H](Cc1ccccc1)C(=O)N[C@]1(C)CCCCCCC=CCCC[C@@](C)(C(=O)N[C@@H](C)C(=O)N[C@@H](Cc2c[nH]cn2)C(=O)N[C@@H](Cc2ccccc2)C(=O)N[C@@H](C)C(N)=O)NC(=O)[C@H](CC(C)C)NC(=O)[C@H](CCC(N)=O)NC(=O)[C@H](C)NC(=O)[C@H](Cc2c[nH]c3ccccc23)NC(=O)[C@H](Cc2ccc(O)cc2)NC(=O)[C@H](Cc2ccccc2)NC1=O)[C@@H](C)O (single isomer, unassigned) [compound 185]",10 to 100 nM,< 10 nM,> 1000 nM,100 to 1000 nM,–,–,–,–
"CC[C@H](C)[C@H](NC(C)=O)C(=O)N[C@H](C(=O)N[C@@H](Cc1ccccc1)C(=O)N[C@]1(C)CCCCCCC=CCCC[C@@](C)(C(=O)N[C@@H](C)C(=O)N[C@@H](Cc2c[nH]cn2)C(=O)N[C@@H](Cc2ccccc2)C(=O)N[C@@H](C)C(N)=O)NC(=O)[C@H](CC(C)C)NC(=O)[C@H](CCC(N)=O)NC(=O)[C@H](C)NC(=O)[C@H](Cc2c[nH]c3ccccc23)NC(=O)[C@H](Cc2c[nH]cn2)NC(=O)[C@H](CCC(=O)O)NC1=O)[C@@H](C)O (single isomer, unassigned) [compound 189]",10 to 100 nM,< 10 nM,100 to 1000 nM,10 to 100 nM,–,–,–,–
"CC[C@H](C)[C@H](NC(C)=O)C(=O)N[C@H](C(=O)N[C@@H](Cc1ccccc1)C(=O)N[C@]1(C)CCCCCCC=CCCC[C@@](C)(C(=O)N[C@@H](C)C(=O)N[C@@H](Cc2c[nH]cn2)C(=O)N[C@@H](Cc2ccccc2)C(=O)N[C@@H](C)C(N)=O)NC(=O)[C@H](CC(C)C)NC(=O)[C@H](CCC(N)=O)NC(=O)[C@H](C(C)C)NC(=O)[C@H](Cc2c[nH]c3ccccc23)NC(=O)[C@H](Cc2c[nH]cn2)NC(=O)[C@H](CCC(=O)O)NC1=O)[C@@H](C)O (single isomer, unassigned) [compound 194]",10 to 100 nM,< 10 nM,100 to 1000 nM,100 to 1000 nM,–,–,–,–
"CC(=O)N[C@@H](CC(C)C)C(=O)N[C@H](C(=O)N[C@@H](Cc1ccccc1)C(=O)N[C@]1(C)CCCCCCC=CCCC[C@@](C)(C(=O)N[C@@H](CO)C(=O)N[C@@H](C)C(=O)N[C@@H](C)C(N)=O)NC(=O)[C@H](CC(C)C)NC(=O)[C@H](C)NC(=O)[C@H](C)NC(=O)[C@H](Cc2c[nH]c3ccccc23)NC(=O)[C@H](CCC(=O)O)NC(=O)[C@H](C)NC1=O)[C@@H](C)O (single isomer, unassigned) [compound 199]",–,–,–,–,10 to 100 nM,< 10 nM,100 to 1000 nM,100 to 1000 nM
"CC(=O)N[C@@H](CC(C)C)C(=O)N[C@H](C(=O)N[C@@H](Cc1ccccc1)C(=O)N[C@]1(C)CCCCCCC=CCCC[C@@](C)(C(=O)N[C@@H](CO)C(=O)N[C@@H](C)C(=O)N[C@@H](C)C(N)=O)NC(=O)[C@H](CC(C)C)NC(=O)[C@H](C)NC(=O)[C@H](C)NC(=O)[C@H](Cc2c[nH]c3ccccc23)NC(=O)[C@H](CO)NC(=O)[C@H](C)NC1=O)[C@@H](C)O (single isomer, unassigned) [compound 201]",10 to 100 nM,< 10 nM,100 to 1000 nM,100 to 1000 nM,–,–,–,–
"CC[C@H](C)[C@H](NC(=O)[C@H](Cc1c[nH]cn1)NC(=O)[C@H](C)NC(=O)[C@]1(C)CCCC=CCCCCCC[C@@](C)(NC(=O)[C@H](Cc2ccccc2)NC(=O)[C@@H](NC(=O)[C@H](CC(C)C)NC(C)=O)[C@@H](C)O)C(=O)N[C@@H](CCC(=O)O)C(=O)N[C@@H](Cc2c[nH]cn2)C(=O)N[C@@H](Cc2c[nH]c3ccccc23)C(=O)N[C@@H](C)C(=O)N[C@@H](CCC(N)=O)C(=O)N[C@@H](CC(C)C)C(=O)N1)C(=O)N[C@H](C)C(N)=O (single isomer, unassigned) [compound 206]",10 to 100 nM,< 10 nM,100 to 1000 nM,10 to 100 nM,–,–,–,–
"CC(=O)N[C@@H](CC(C)C)C(=O)N[C@H](C(=O)N[C@@H](Cc1ccccc1)C(=O)N[C@]1(C)CCCCCCC=CCCC[C@@](C)(C(=O)N[C@@H](C)C(=O)N[C@@H](C)C(=O)N[C@@H](Cc2ccccc2)C(=O)N[C@H](C)C(N)=O)NC(=O)[C@H](CC(C)C)NC(=O)[C@H](CCC(N)=O)NC(=O)[C@H](C)NC(=O)[C@H](Cc2c[nH]c3ccccc23)NC(=O)[C@H](Cc2ccc(O)cc2)NC(=O)[C@H](C)NC1=O)[C@@H](C)O (single isomer, unassigned) [compound 210]",< 10 nM,< 10 nM,100 to 1000 nM,10 to 100 nM,–,–,–,–
"CC(=O)N[C@@H](CC(C)C)C(=O)N[C@H](C(=O)N[C@@H](Cc1ccccc1)C(=O)N[C@]1(C)CCCCCCC=CCCC[C@@](C)(C(=O)N[C@@H](C)C(=O)N[C@@H](C)C(=O)N[C@H](C(=O)N[C@H](C)C(N)=O)C(C)C)NC(=O)[C@H](CC(C)C)NC(=O)[C@H](CCC(N)=O)NC(=O)[C@H](C)NC(=O)[C@H](Cc2c[nH]c3ccccc23)NC(=O)[C@H](Cc2ccc(O)cc2)NC(=O)[C@H](C)NC1=O)[C@@H](C)O (single isomer, unassigned) [compound 213]",< 10 nM,< 10 nM,100 to 1000 nM,10 to 100 nM,–,–,–,–
"CC(=O)N[C@@H](CC(C)C)C(=O)N[C@H](C(=O)N[C@@H](Cc1ccccc1)C(=O)N[C@]1(C)CCCCCCC=CCCC[C@@](C)(C(=O)N[C@@H](C)C(=O)N[C@@H](C)C(=O)N[C@@H](CC(C)C)C(=O)N[C@H](C)C(N)=O)NC(=O)[C@H](CC(C)C)NC(=O)[C@H](CCC(N)=O)NC(=O)[C@H](C)NC(=O)[C@H](Cc2c[nH]c3ccccc23)NC(=O)[C@H](Cc2ccc(O)cc2)NC(=O)[C@H](C)NC1=O)[C@@H](C)O (single isomer, unassigned) [compound 215]",10 to 100 nM,< 10 nM,100 to 1000 nM,10 to 100 nM,–,–,–,–

# — patent US8927500B2, “Peptidomimetic macrocycles” (Aileron Therapeutics, Inc., priority 2012, dated 2015)
